Laboratory results as given in ChEMBL document CHEMBL3217665, “Amino-derivatives of the sesquiterpene lactone class of natural products as prodrugs” (Medchemcomm, 2013).
In brackets after ≈: the same amount, converted by molar mass.

Assays:
[1] = Antiproliferative activity against human Hep2 cells; type: functional; conditions: HEp-2, read-out: ED50 (the source's name)
[2] = test system: MCF7; assay: Antiproliferative activity against human MCF7 cells; type: functional, cell-based
[3] = test system: NCI-H520; assay: Antiproliferative activity against human NCI-H520 cells; type: functional, cell-based
[4] = test system: A549; assay: Antiproliferative activity against human A549 cells; type: functional, cell-based
[5] = test system: P388; assay: Antiproliferative activity against mouse P388 cells; type: functional, cell-based
[6] = Cmax in dog at 100 mg/kg, po; type: ADME, organism-based, Canis lupus familiaris; design: dose 100 mg/kg, route oral; conditions: in vivo
[7] = Oral bioavailability in dog at 100 mg/kg; type: ADME, organism-based, Canis lupus familiaris; conditions: in vivo
[8] = Cmax in mouse at 40 mg/kg, po; type: ADME, organism-based; design: dose 40 mg/kg, route oral; conditions: in vivo
[9] = Oral bioavailability in mouse at 100 mg/kg; type: ADME, organism-based; conditions: in vivo
[10] = Half life in dog at 100 mg/kg, po; type: ADME, organism-based, Canis lupus familiaris; design: dose 100 mg/kg, route oral; conditions: in vivo
[11] = Cmax in mouse at 100 mg/kg, po; type: ADME, organism-based; design: dose 100 mg/kg, route oral; conditions: in vivo
[12] = Half life in mouse at 100 mg/kg, po; type: ADME, organism-based; design: dose 100 mg/kg, route oral; conditions: in vivo
[13] = test system: P388; assay: Antitumor activity against mouse P388 cells allografted in DBA/2 mouse assessed as survival; type: functional
[14] = species on record: Rattus norvegicus; assay: Gastroprotective activity in rat assessed as inhibition of HCl/ethyl alcohol-induced lesions; type: functional
[15] = Antiinflammatory activity in mouse macrophages assessed as LPS-induced nitric oxide production; type: functional, cell-based; conditions: Macrophage
[16] = species on record: Mus musculus; assay: Gastroprotective activity in mouse assessed as inhibition of water-immersion-induced lesions; type: functional

Compound	EC50 [1] [µg/mL]	inhibition (INH) [14] [%]	IC50 [15] [µg/mL]	inhibition (INH) [16] [%]	also measured
C=C1C(=O)O[C@@H]2C[C@@H](C)[C@@H]3CCC(=O)[C@@]3(C)[C@@H](O)[C@H]12	3.83 (≈ 14.5 µM)	–	–	–	–
C=C1CCC[C@]2(C)C[C@H]3OC(=O)[C@@H](CN(CC)CC)[C@H]3C[C@@H]12	–	–	–	–	IC50 [2]: 800 nM; IC50 [3]: 900 nM; IC50 [4]: 800 nM; IC50 [5]: 300 nM
C/C1=C\CC[C@@]2(C)O[C@@H]2[C@H]2OC(=O)[C@@H](CN(C)C)[C@@H]2CC1	–	–	–	–	Cmax [6]: 61 µM; bioavailability [7]: 70%; Cmax [8]: 0.2 µM; bioavailability [9]: 70%; half-life [10]: 1.9 h; Cmax [11]: 25 µM; half-life [12]: 0.63 h
C[C@@H]1C[C@H]2OC(=O)C(CN(C)C)[C@H]2[C@H](O)[C@]2(C)C(=O)C=C[C@@H]12 (stereo partly specified)	0.604 (≈ 1.96 µM)	–	–	–	Survival [13]: 13 days
C[C@@H]1C[C@H]2OC(=O)C(CN(C)C)[C@H]2[C@H](O)[C@]2(C)C(=O)CC[C@@H]12 (stereo partly specified)	6.04 (≈ 19.5 µM)	–	–	–	–
C/C1=C\[C@H]2OC(=O)[C@@H](CN3CCC[C@H]3C(=O)O)[C@@H]2CC/C(C)=C/CC1	–	59.8	2.8 (≈ 8.06 µM)	57	–
C=C1CC[C@H]2C(=C)CC[C@@H]3[C@H](OC(=O)[C@H]3CN3CCC[C@H]3C(=O)O)[C@@H]12	–	87	2.8 (≈ 8.11 µM)	19	–
C=C1CC[C@H]2C(=C)CC[C@@H]3[C@H](OC(=O)[C@H]3CN[C@@H](CC(N)=O)C(=O)O)[C@@H]12	–	68.1	16 (≈ 44.1 µM)	4.7	–
C=C1C(=O)O[C@@H]2/C=C(\C)CC/C=C(\C)CC[C@@H]12 [COSTUNOLIDE]	–	93.2	1.2 (≈ 5.17 µM)	14.3	–
C=C1CC[C@H]2C(=C)CC[C@H]3C(=C)C(=O)O[C@@H]3[C@@H]12 [DEHYDROCOSTUSLACTONE]	–	96.2	1.2 (≈ 5.21 µM)	19	–
C=C1C(=O)O[C@@H]2C[C@@H](C)[C@@H]3C=CC(=O)[C@@]3(C)[C@@H](O)[C@H]12 [HELENALIN]	0.083 (≈ 0.316 µM)	–	–	–	Survival [13]: 13.4 days
C=C1C(=O)O[C@@H]2C[C@@]3(C)CCCC(=C)[C@@H]3C[C@H]12 [ISOALANTOLACTONE]	–	–	–	–	IC50 [2]: 600 nM; IC50 [3]: 900 nM; IC50 [4]: 600 nM; IC50 [5]: 400 nM
